Assay: xn = mol fraction of the nth substance listed
Settings: 101 kPa, Liquid, Vibrating tube method

OCC(O)CO [glycerol] + O
mass density [kg/m3]
Settings | 298.15 K | 308.15 K | 323.15 K | 333.15 K | 348.15 K
x1 = 0.00209 | – | 996.42 | 990.39 | 985.55 | 977.18
x1 = 0.00439 | 1002.17 | 999.06 | 992.99 | 988.13 | 979.74
x1 = 0.0051 | 1002.98 | 999.87 | 993.77 | 988.9 | 980.52
x1 = 0.00657 | 1004.67 | 1001.52 | 995.4 | 990.52 | 982.12
x1 = 0.01072 | 1009.34 | 1006.11 | 999.9 | 994.98 | 986.55
x1 = 0.01633 | 1015.48 | 1012.13 | 1005.81 | 1000.85 | 992.29
x1 = 0.03504 | 1034.47 | 1030.74 | 1024.15 | 1018.99 | 1010.23
x1 = 0.05086 | 1049.05 | 1045.04 | 1038.23 | 1032.9 | 1024.05
x1 = 0.06775 | 1063.23 | 1058.94 | 1051.86 | 1046.46 | 1037.5
x1 = 0.1127 | 1095.24 | 1090.4 | 1082.82 | 1077.08 | 1067.8
x1 = 0.1559 | 1119.87 | 1114.62 | 1106.34 | 1100.45 | 1090.81
x1 = 0.206 | 1142.86 | 1137.3 | 1128.58 | 1122.53 | 1112.88
x1 = 0.256 | 1161.34 | 1155.48 | 1146.57 | 1140.39 | 1130.45
x1 = 0.3311 | 1183 | 1177.16 | 1168.09 | 1161.69 | 1151.47
x1 = 0.4012 | 1198.45 | 1192.55 | 1183.35 | 1177 | 1166.73
x1 = 0.4907 | 1213.75 | 1207.7 | 1198.19 | 1191.81 | 1181.85
x1 = 0.5828 | 1225.65 | 1219.6 | 1210.22 | 1203.79 | 1193.86
x1 = 0.6857 | 1236.32 | 1230.18 | 1220.77 | 1214.31 | 1204.27
x1 = 0.7494 | 1241.81 | 1235.6 | 1226.23 | 1219.8 | 1209.73
x1 = 0.8101 | 1246.48 | 1240.19 | 1230.76 | 1224.29 | 1214.26
x1 = 0.8528 | 1249.4 | 1243.15 | 1233.67 | 1227.21 | 1217.21
x1 = 0.882 | 1251.36 | 1245.07 | 1235.56 | 1229.08 | 1219.1
x1 = 0.9143 | 1253.31 | 1247.06 | 1237.53 | 1231.07 | 1221.08
x1 = 0.9408 | 1254.8 | 1248.55 | 1239.01 | 1232.59 | 1222.63
x1 = 0.9578 | 1255.73 | 1249.47 | 1239.93 | 1233.52 | 1223.59
x1 = 0.9792 | 1256.89 | 1250.63 | 1241.1 | 1234.68 | 1224.76
x1 = 0.9895 | 1257.41 | 1251.16 | 1241.61 | 1235.2 | 1225.28
x1 = 1 | 1257.91 | 1251.66 | 1242.11 | 1235.71 | 1225.79

— the NIST ThermoML archive (doi:10.1016/j.tca.2013.07.012)
